Data published in patent US20050208496A1, “Methods of testing for bronchial asthma or chronic obstructive pulmonary disease” (Genox Research, Inc., priority 2002, published 2005).

System: respiratory epithelial cells

With “IL-13: human IL-13 (Peprotech, Inc.) added to the medium at 50 ng/mL to stimulate respiratory epithelial cells” the “IFIT4 (38584_at) expression, fold change upon IL-13 stimulation” value (lot 2, Day 3, AI method) was 10.3 fold, the “IFITM1 (675_at) expression, fold change upon IL-13 stimulation” value (lot 2, Day 3, AI method) was 3.6 fold and the “IL13RA2 (1016_s_at) expression fold change upon IL-13 stimulation” value (lot 2, Day 3, AI method) was 15.9 fold. For the same substance, the “IL19 (47855_at) expression fold change” value (lot 2, Day 3, AI method) was 10.9 fold, the “ILIRL1 (40322_at) expression, fold change upon IL-13 stimulation” value (lot 2, Day 3, AI method) was 9.8 fold and the “IRF7 (36412_s_at) expression fold change” value (lot 2, Day 3, AI method) was 3.4 fold. The “ISG15 (1107_s_at) expression, fold change upon IL-13 stimulation” value (lot 2, Day 3, AI method) was 8.8 fold, the “ISG15 (38432_at) expression, fold change upon IL-13 stimulation” value (lot 2, Day 3, AI method) was 12.6 fold and the “ISG20 (33304_at) expression, fold change upon IL-13 stimulation” value (lot 2, Day 3, AI method) was 3.3 fold. For the same substance, the “KIAA0537 (33787_at) expression, fold change upon IL-13 stimulation” value (lot 2, Day 3, AI method) was 4.8 fold, the “KIAA1199 (36070_at) expression, fold change upon IL-13 stimulation” value (lot 2, Day 3, AI method) was 2.7 fold and the “KIAA1268 (57050_at) expression fold change” value (lot 2, Day 3, AI method) was 2.2 fold. The “KIAAI268 (59516_at) expression fold change” value (lot 2, Day 3, AI method) was 2.2 fold, the “KRT16 (601_s_at) expression fold change” value (lot 2, Day 3, AI method) was 5.2 fold and the “LAMP3 (37168_at) expression, fold change upon IL-13 stimulation” value (lot 2, Day 3, AI method) was 5.4 fold. For the same substance, the “LOC57118 (51085_at) expression fold change” value (lot 2, Day 3, AI method) was 2.7 fold, the “LOC64116 (40456_at) expression, fold change upon IL-13 stimulation” value (lot 2, Day 3, AI method) was 5.6 fold and the “MDA5 (51920_at) expression fold change” value (lot 2, Day 3, AI method) was 3.3 fold. The “MFHAS1 (50388_at) expression fold change” value (lot 2, Day 3, AI method) was 2.4 fold, the “MICB (35937_at) expression, fold change upon IL-13 stimulation” value (lot 2, Day 3, AI method) was 2.7 fold and the “MKP-L (38272_at) expression, fold change upon IL-13 stimulation” value (lot 2, Day 3, AI method) was 2.5 fold. For the same substance, the “MMP7 (668_s_at) expression, fold change upon IL-13 stimulation” value (lot 2, Day 3, AI method) was 3.4 fold, the “MP1 (34839_at) expression, fold change upon IL-13 stimulation” value (lot 2, Day 3, AI method) was 2 fold and the “MX2 (879_at) expression fold change” value (lot 2, Day 3, AI method) was 6.9 fold. The “MXI (37014_at) expression fold change” value (lot 2, Day 3, AI method) was 11.4 fold, the “NCF2 (41038_at) expression fold change” value (lot 2, Day 3, AI method) was 4.4 fold and the “NK4 (39119_s_at) expression fold change upon IL-13 stimulation” value (lot 2, Day 3, AI method) was 4.1 fold. The “NOS2A (1948_f_at) expression fold change upon IL-13 stimulation” value (lot 2, Day 3, AI method) was 14.5 fold, the “NOS2A (48918_at) expression fold change” value (lot 2, Day 3, AI method) was 25.4 fold and the “OAF (39695_at) expression, fold change upon IL-13 stimulation” value (lot 2, Day 3, AI method) was 2.7 fold. The “OAS1 (38388_at) expression fold change upon IL-13 stimulation” value (lot 2, Day 3, AI method) was 6.5 fold, the “OAS1 (38389_at) expression fold change upon IL-13 stimulation” value (lot 2, Day 3, AI method) was 4.7 fold and the “OAS2 (39263_at) expression fold change upon IL-13 stimulation” value (lot 2, Day 3, AI method) was 3.5 fold. For the same substance, the “OSF-2 (1451_s_at) expression fold change upon IL-13 stimulation” value (lot 2, Day 3, AI method) was 86.8 fold, the “PKD2 (38120_at) expression, fold change upon IL-13 stimulation” value (lot 2, Day 3, AI method) was 2.4 fold and the “PLOD2 (34795_at) expression fold change upon IL-13 stimulation” value (lot 2, Day 3, AI method) was 2 fold. For the same substance, the “PLS1 (39951_at) expression fold change” value (lot 2, Day 3, AI method) was 3.1 fold, the “PLSCR1 (32775_r_at) expression fold change upon IL-13 stimulation” value (lot 2, Day 3, AI method) was 3 fold and the “PMCH (32005_at) expression fold change” value (lot 2, Day 3, AI method) was 12.2 fold. The “PSMB9 (38287_at) expression fold change upon IL-13 stimulation” value (lot 2, Day 3, AI method) was 2.7 fold, the “PVRL2 (50320_g_at) expression fold change” value (lot 2, Day 3, AI method) was 2.2 fold and the “RASGRP1 (33291_at) expression fold change” value (lot 2, Day 3, AI method) was 3.7 fold. The “RIG-1 (59215_at) expression fold change” value (lot 2, Day 3, AI method) was 11.8 fold, the “SAMHD1 (34714_at) expression, fold change upon IL-13 stimulation” value (lot 2, Day 3, AI method) was 3.7 fold and the “SCYB10 (431_at) expression fold change upon IL-13 stimulation” value (lot 2, Day 3, AI method) was 4.9 fold. The “SCYB11 (35061_at) expression fold change upon IL-13 stimulation” value (lot 2, Day 3, AI method) was 6.8 fold, the “SECTM1 (41045_at) expression, fold change upon IL-13 stimulation” value (lot 2, Day 3, AI method) was 6.8 fold and the “SERPINB2 (37185_at) expression fold change” value (lot 2, Day 3, AI method) was 4.1 fold. For the same substance, the “SERPINB4 (1549_s_at) expression fold change” value (lot 2, Day 3, AI method) was 9.6 fold, the “SERPINB6 (34789_at) expression fold change” value (lot 2, Day 3, AI method) was 2.1 fold and the “SIAT1 (41352_at) expression fold change upon IL-13 stimulation” value (lot 2, Day 3, AI method) was 3.9 fold. The “SLC26A4, pendrin (36376_at) expression fold change” value (lot 2, Day 3, AI method) was 118.3 fold, the “SSI-1 (41592_at) expression, fold change upon IL-13 stimulation” value (lot 2, Day 3, AI method) was 15.5 fold and the “STAT1 (32860_g_at) expression fold change” value (lot 2, Day 3, AI method) was 2.1 fold. The “STAT1 (33338_at) expression fold change” value (lot 2, Day 3, AI method) was 5.8 fold, the “STAT1 (33339_g_at) expression fold change” value (lot 2, Day 3, AI method) was 3.2 fold and the “TGFB2 (1262_s_at) expression fold change upon IL-13 stimulation” value (lot 2, Day 3, AI method) was 4.1 fold. The “TGM2 (38404_at) expression fold change upon IL-13 stimulation” value (lot 2, Day 3, AI method) was 2.1 fold, the “THBS1 (115_at) expression fold change upon IL-13 stimulation” value (lot 2, Day 3, AI method) was 4.1 fold and the “TSPAN-3 (38612_at) expression, fold change upon IL-13 stimulation” value (lot 2, Day 3, AI method) was 2.5 fold. The “UBE2L6 (40505_at) expression fold change upon IL-13 stimulation” value (lot 2, Day 3, AI method) was 2.1 fold, the “UFD1L (811_at) expression, fold change upon IL-13 stimulation” value (lot 2, Day 3, AI method) was 3.1 fold and the “WARS (38121_at) expression fold change upon IL-13 stimulation” value (lot 2, Day 3, AI method) was 8.7 fold. The “cig5 (38549_at) expression, fold change upon IL-13 stimulation” value (lot 2, Day 3, AI method) was 14.3 fold, the “diubiquitin (39959_at) expression, fold change upon IL-13 stimulation” value (lot 2, Day 3, AI method) was 16.3 fold and the “AA167714 (54897_at) expression fold change” value (lot 2, Day 7, AI method) was 4.7 fold. The “AA420479 (52539_at) expression fold change” value (lot 2, Day 7, AI method) was 10.1 fold, the “AA541787 (52622_at) expression fold change” value (lot 2, Day 7, AI method) was 3.9 fold and the “AA582926 (52307_at) expression fold change” value (lot 2, Day 7, AI method) was 3.7 fold. The “AA604375 (44127_at) expression fold change” value (lot 2, Day 7, AI method) was 3.9 fold, the “ACP5 (677_s_at) expression, fold change upon IL-13 stimulation” value (lot 2, Day 7, AI method) was 2.8 fold and the “ADAM8 (40712_at) expression, fold change upon IL-13 stimulation” value (lot 2, Day 7, AI method) was 4.5 fold. For the same substance, the “ADAM28 (35479_at) expression, fold change upon IL-13 stimulation” value (lot 2, Day 7, AI method) was 3.7 fold, the “AI565105 (54886_at) expression fold change” value (lot 2, Day 7, AI method) was 2.4 fold and the “AI659927 (54033_at) expression fold change” value (lot 2, Day 7, AI method) was 3 fold. The “AI700705 (46658_at) expression fold change” value (lot 2, Day 7, AI method) was 2.5 fold, the “AI821796 (57694_at) expression fold change” value (lot 2, Day 7, AI method) was 2.5 fold and the “AI989346 (52327_s_at) expression fold change” value (lot 2, Day 7, AI method) was 2.5 fold. For the same substance, the “AKAP2 (35985_at) expression, fold change upon IL-13 stimulation” value (lot 2, Day 7, AI method) was 7.6 fold, the “AKAP2 (48035_at) expression fold change” value (lot 2, Day 7, AI method) was 6.4 fold and the “AKAP10 (36632_at) expression, fold change upon IL-13 stimulation” value (lot 2, Day 7, AI method) was 2.4 fold. The “ALOX15 (34636_at) expression, fold change upon IL-13 stimulation” value (lot 2, Day 7, AI method) was 322.1 fold, the “ARHE (35803_at) expression fold change upon IL-13 stimulation” value (lot 2, Day 7, AI method) was 2 fold and the “ARL7 (57151_at) expression fold change” value (lot 2, Day 7, AI method) was 5.3 fold. The “AW019985 (48826_s_at) expression fold change” value (lot 2, Day 7, AI method) was 14.7 fold, the “AXL (38433_at) expression, fold change upon IL-13 stimulation” value (lot 2, Day 7, AI method) was 7.5 fold and the “BAL (52167_at) expression fold change” value (lot 2, Day 7, AI method) was 1.6 fold. For the same substance, the “BIG2 (34484_at) expression, fold change upon IL-13 stimulation” value (lot 2, Day 7, AI method) was 2.9 fold, the “BST2 (39061_at) expression, fold change upon IL-13 stimulation” value (lot 2, Day 7, AI method) was 3.1 fold and the “C1S (40496_at) expression, fold change upon IL-13 stimulation” value (lot 2, Day 7, AI method) was 4.1 fold. For the same substance, the “C21orf11 (58957_at) expression fold change” value (lot 2, Day 7, AI method) was 2.4 fold, the “CDH6 (1620_at) expression fold change upon IL-13 stimulation” value (lot 2, Day 7, AI method) was 12.1 fold and the “CDH6 (57421_at) expression fold change” value (lot 2, Day 7, AI method) was 3.7 fold. The “CDH26 (46916_at) expression fold change” value (lot 2, Day 7, AI method) was 5.4 fold, the “CH25H (32363_at) expression, fold change upon IL-13 stimulation” value (lot 2, Day 7, AI method) was 12 fold and the “CLDN1 (46260_at) expression fold change” value (lot 2, Day 7, AI method) was 3.6 fold. For the same substance, the “CLDN4 (35276_at) expression, fold change upon IL-13 stimulation” value (lot 2, Day 7, AI method) was 23 fold, the “CLDN5 (38995_at) expression, fold change upon IL-13 stimulation” value (lot 2, Day 7, AI method) was 8.3 fold and the “CTSC (133_at) expression, fold change upon IL-13 stimulation” value (lot 2, Day 7, AI method) was 2.2 fold. The “CXCL16 (44095_at) expression fold change” value (lot 2, Day 7, AI method) was 2 fold, the “DBCCR1 (40292_at) expression, fold change upon IL-13 stimulation” value (lot 2, Day 7, AI method) was 19.3 fold and the “DD96 (31610_at) expression, fold change upon IL-13 stimulation” value (lot 2, Day 7, AI method) was 2.5 fold. The “DDIT3 (39420_at) expression, fold change upon IL-13 stimulation” value (lot 2, Day 7, AI method) was 29.5 fold, the “DKFZP564O0823 (41402_at) expression, fold change upon IL-13 stimulation” value (lot 2, Day 7, AI method) was 4.6 fold and the “DKFZP566J091 (57197_at) expression fold change” value (lot 2, Day 7, AI method) was 15.2 fold. The “DKFZp564N1116 (37784_at) expression, fold change upon IL-13 stimulation” value (lot 2, Day 7, AI method) was 7.8 fold.
